Where two headings read alike, the source gives them in different places.
Experiments:
[1] = test system: serum lipids and serum lipid hydroperoxide; assay: Pharmacological test method B for anti-hyperlipidemic activity (serum lipids, 4 weeks feeding); assay type: in vivo, male Wistar strain rats; parameters: AI Diff.: unit not given here; details: for change in vivo at 1 % in diet: Rattus norvegicus, po, 672 h; for change in vivo at 1 % in diet / AI Diff. / HDL-C Diff. / LPO Diff. / PL Diff. / TG Diff.: versus control group; for TG % of diff. (Table 20) / TG Diff. (Table 20): Table 20, versus control group; for HDL-C rise compared with normal diet group: versus normal diet group
Protocol: Pharmacological test method B for anti-hyperlipidemic acitivity (the term "method B" was used in the present specification)
Male Wistar strain rats (100±1 g, each 8 rats were formed into a group except that the control group fed with a hyperlipidemic diet was formed of 16 rats) were used as test animals. A powdery diet (CE-2, supplied by Clea Japan, Inc.) was used as ordinary diet. The hyperlipidemic diet was prepared by fortifying the ordinary diet with cholesterol (1%) and cholic acid (0.5%). Each test compound (1%) for administration was admixed with the hyperlipidemic diet. Each two rats were kept in a cage and given the prescribed diet and water ad libitum. Thus the rats were fed for 4 weeks at a constant temperature of 23±1° C. and a constant R.H. of 55±5%. Finally, the rats were fasted from food except water for 16 hours (from 4 p.m. of the 28th test day to 8 a.m. of the 29th test day), and under anesthesia with pentbarbital sodium (tradename: Nembutal), blood was taken from each rat through the descending abdominal arota. Then, TC, HDL-C, TG, PL, and LPO in the serum were measured in the following manner.
A TC kit-K (supplied by Nippon Shoji Kaisha, Ltd.) was used. The principle of this determination is as follows: The ester of cholesterol in the serum is hydrolyzed with cholesterol-ester hydrolase into free cholesterol and fatty acids. All the free cholesterol is oxidized with cholesterol oxydase to form Δ^4 -cholestenone and hydrogen peroxide. Phenol and 4-aminoantipyrin are oxidatively condensed together by the formed hydrogen peroxide and peroxydase. The produced red quinone coloring matter is measured by colorimetry for absorbance at 500 nm using a spectrophotometer, thereby determining the TC:
The color-developing liquid (3.0 ml) is well mixed with the sample serum (0.02 ml). The mixture once heated at 37° C. for 15 minutes, is measured for absorbance at 500 nm with a spectrophotometer. The found absorbance is denoted by EA. On the other hand, the color-developing liquid (3.0 ml) is well mixed with the standard solution. The mixture is treated and measured for absorbance at 500 nm in the same manner as the above. This found absorbance is denoted by ES. Both EA and ES are determined with reference to the value of the blank test conducted using the color-developing liquid (3.0 ml) alone. [formula]
An HDL-C kit-N (supplied by Nippon Shoji Kaisha, Ltd.) was used. […] (VLDL) and lo density lipoprotein (LDL) in the serum is precipitated by the action of heparin. The precipitate is separated by centrifugation. High density lipoprotein (HDL) is dissolved in the separated supernatant. Esters of cholesterol in this fraction is hydrolyzed with cholesterol-ester hydrolase into free cholesterol and fatty acids. All the free cholesterol is oxidized with cholesterol oxydase to form Δ^4 -cholestenone and hydrogen peroxide. Phenol and 4-aminoantipyrine are oxidatively condensed together by the formed hydrogen peroxide and peroxydase. The produced red quinone coloring matter is measured by colorimetry for absorbance at 500 nm using a spectrophotometer, thereby determining the HDL-C.
A PL kit-K (supplied by Nippon Shoji Kaisha, Ltd.) was used for the determination. Lecithin, sphingomyelin, and lysolecithin are decomposed by phospholipase D into choline and phosphatidic acid, N-acylsphingosyl phosphate, or lysophosphatidic acid, respectively. The resulting choline is quantitatively decomposed by choline oxydase into hydrogen peroxide and betaine. With this hydrogen peroxide, and aid of peroxydase, phenol and 4-aminoantipyrin are condensed into red quinone pigment, then the absorbance at 500 nm of which is measured with a spectrophotometer, thereby determining the PL. […]

[2] = test system: serum lipids and serum lipid hydroperoxide; assay: Pharmacological test method A for anti-hyperlipidemic activity (serum lipids, 2 weeks feeding); assay type: in vivo, male Wistar strain rats; details: for AI [(TC - HDL-C)/(HDL-C)] / HDL-C in serum / LPO in serum / PL in serum / TC in serum / TG in serum: 1% in hyperlipidemic diet, 2 weeks; for AI % of diff. / AI Diff. / HDL-C % of diff. / HDL-C Diff. / LPO % of diff. / LPO Diff. / PL % of diff. / PL Diff. / TC % of diff. / TC Diff. / TG % of diff. / TG Diff.: versus control group
Summary of the method: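 Male Wistar rats (100±lg, 10 per group) fed 10 g/day for 2 weeks of a 1% cholesterol/0.5% cholic acid diet, test groups with 1% each of cycloartenol, 24-methylenecycloartanol and cyclobranol. After 16 h fast, aortic blood serum assayed enzymatically/colorimetrically for TC, HDL-C, TG, PL, LPO.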

Compound | change in vivo at 1 % in diet ([1]; read-out: AI % of diff.) | change in vivo at 1 % in diet ([1]; read-out: HDL-C % of diff.) | AI [(TC - HDL-C)/(HDL-C)] [2] | HDL-C in serum [2] | LPO in serum [2] | PL in serum [2] | TC in serum [2] | TG in serum [2] | AI % of diff. [2] | AI Diff. [2] | HDL-C % of diff. [2] | HDL-C Diff. [2] | LPO % of diff. [2] | LPO Diff. [2] | PL % of diff. [2] | PL Diff. [2] | TC % of diff. [2] | TC Diff. [2] | TG % of diff. [2] | TG Diff. [2] | other results
COc1cc(C=CC(=O)OC2CCC34CC35CCC3(C)C(C(C)CCC(C)=C(C)C)CCC3(C)C5CCC4C2(C)C)ccc1N (stereo not drawn) [Example 178, Cyclobranyl ester of 4-amino-3-methoxycinnamic acid] | -88.9% | 215% | – | – | – | – | – | – | – | – | – | – | – | – | – | – | – | – | – | – | change in vivo at 1 % in diet ([1]; read-out: LPO % of diff.): -36.6%; change in vivo at 1 % in diet ([1]; read-out: PL % of diff.): -28.2%; change in vivo at 1 % in diet ([1]; read-out: TG % of diff.): -28%; TG % of diff. (Table 20) [1]: -54.2%; TG Diff. (Table 20) [1]: -226.9 mg/dL; AI Diff. [1]: -22.35; HDL-C Diff. [1]: +34.4 mg/dl; LPO Diff. [1]: -1.27 nmol/mL; PL Diff. [1]: -49.8 mg/dL; TG Diff. [1]: -22.8 mg/dL; HDL-C rise compared with normal diet group [1]: remarkable rises
COc1ccc(N)cc1C(=O)OC1CCC23CC24CCC2(C)C(C(C)CCC=C(C)C)CCC2(C)C4CCC3C1(C)C (stereo not drawn) [Example 171, cycloartenyl ester of 5-amino-2-methoxybenzoic acid] | -71.6% | 51.3% | – | – | – | – | – | – | – | – | – | – | – | – | – | – | – | – | – | – | change in vivo at 1 % in diet ([1]; read-out: LPO % of diff.): -36%; change in vivo at 1 % in diet ([1]; read-out: PL % of diff.): -33%; change in vivo at 1 % in diet ([1]; read-out: TG % of diff.): -19.3%; TG % of diff. (Table 20) [1]: -53.0%; TG Diff. (Table 20) [1]: -221.6 mg/dL; AI Diff. [1]: -18.02; HDL-C Diff. [1]: +8.2 mg/dl; LPO Diff. [1]: -1.25 nmol/mL; PL Diff. [1]: -58.4 mg/dL; TG Diff. [1]: -15.7 mg/dL
COc1ccc([N+](=O)[O-])cc1C(=O)OC1CCC23CC24CCC2(C)C(C(C)CCC=C(C)C)CCC2(C)C4CCC3C1(C)C (stereo not drawn) [Example 170, cycloartenyl ester of 2-methoxy-5-nitrobenzoic acid] | -74.9% | 123% | – | – | – | – | – | – | – | – | – | – | – | – | – | – | – | – | – | – | change in vivo at 1 % in diet ([1]; read-out: LPO % of diff.): -14.1%; change in vivo at 1 % in diet ([1]; read-out: PL % of diff.): -28.9%; change in vivo at 1 % in diet ([1]; read-out: TG % of diff.): -21.9%; TG % of diff. (Table 20) [1]: -37.5%; TG Diff. (Table 20) [1]: -157.0 mg/dL; AI Diff. [1]: -18.83; HDL-C Diff. [1]: +19.7 mg/dl; LPO Diff. [1]: -0.49 nmol/mL; PL Diff. [1]: -51.1 mg/dL; TG Diff. [1]: -17.8 mg/dL; HDL-C rise compared with normal diet group [1]: remarkable rises
C=C(CCC(C)C1CCC2(C)C3CCC4C(C)(C)C(OC(=O)C(C)=Cc5cccc(N)c5)CCC45CC35CCC12C)C(C)C (stereo not drawn) [Example 213, 24-Methylenecycloartanyl ester of m-amino-α-methylcinnamic acid] | -93% | 328% | – | – | – | – | – | – | – | – | – | – | – | – | – | – | – | – | – | – | change in vivo at 1 % in diet ([1]; read-out: LPO % of diff.): -38.9%; change in vivo at 1 % in diet ([1]; read-out: PL % of diff.): -34.8%; change in vivo at 1 % in diet ([1]; read-out: TG % of diff.): -29.2%; TG % of diff. (Table 20) [1]: -54.7%; TG Diff. (Table 20) [1]: -229.0 mg/dL; AI Diff. [1]: -23.38; HDL-C Diff. [1]: +52.4 mg/dl; LPO Diff. [1]: -1.35 nmol/mL; PL Diff. [1]: -61.5 mg/dL; TG Diff. [1]: -23.7 mg/dL; HDL-C rise compared with normal diet group [1]: remarkable rises
CCCCC/C=C\C/C=C\CCCCCCCC(=O)OC1CCC23CC24CCC2(C)C(C(C)CCC=C(C)C)CCC2(C)C4CCC3C1(C)C (stereo not drawn) [Example 25, cycloartenyl linolate] | – | – | 0.705 | 92.3 mg/dL | 1.67 nmol/mL | 144.6 mg/dL | 157.4 mg/dL | 34.0 mg/dL | -42.3% | -0.517 | +6.7% | +5.8 mg/dl | -25.6% | -0.57 nmol/mL | -16.2% | -28.0 mg/dL | -18.1% | -34.8 mg/dL | -6.2% | -2.3 mg/dL | –
COc1ccccc1C(=O)OC1CCC23CC24CCC2(C)C(C(C)CCC=C(C)C)CCC2(C)C4CCC3C1(C)C (stereo not drawn) [Example 13, cycloartenyl-o-methoxybenzoate] | – | – | 1.388 | 60.5 mg/dL | 1.94 nmol/mL | 122.8 mg/dL | 144.5 mg/dL | 26.2 mg/dL | -21.4% | -0.379 | +0.5% | +0.3 mg/dl | -23.3% | -0.59 nmol/mL | -10.2% | -13.9 mg/dL | -13.3% | -22.1 mg/dL | -3.7% | -1.0 mg/dL | –
C=C(CCC(C)C1CCC2(C)C3CCC4C(C)(C)C(OC(=O)C=Cc5ccc(O)c(O)c5)CCC45CC35CCC12C)C(C)C (stereo not drawn) [Example 82, 24-Methylenecycloartanyl ester of 3,4-dihydroxycinnamic acid] | – | – | 1.228 | 87.9 mg/dL | 2.08 nmol/mL | 173.9 mg/dL | 195.8 mg/dL | 42.3 mg/dL | -27.1% | -0.456 | +8.7% | +7.0 mg/dl | -9.8% | -0.23 nmol/mL | -3.2% | -5.8 mg/dL | -9.8% | -21.3 mg/dL | -1.2% | -0.5 mg/dL | –
CC(C)=CCCC(C)C1CCC2(C)C3CCC4C(C)(C)C(OC(=O)c5ccc(N)cc5)CCC45CC35CCC12C (stereo not drawn) [Example 19, cycloartenyl-p-aminobenzoate] | – | – | 0.699 | 91.9 mg/dL | 1.63 nmol/mL | 153.6 mg/dL | 156.1 mg/dL | 31.6 mg/dL | -42.8% | -0.523 | +6.2% | +5.4 mg/dl | -27.2% | -0.61 nmol/mL | -11.0% | -19.0 mg/dL | -18.8% | -36.1 mg/dL | -12.9% | -4.7 mg/dL | –
C=C(CCC(C)C1CCC2(C)C3CCC4C(C)(C)C(OC(=O)c5ccc(O)c(OC)c5)CCC45CC35CCC12C)C(C)C (stereo not drawn) [Example 86, 24-Methylenecycloartanyl ester of 4-hydroxy-3-methoxybenzoic acid] | – | – | 0.802 | 91.9 mg/dL | 2.06 nmol/mL | 163.2 mg/dL | 165.6 mg/dL | 33.1 mg/dL | -20.0% | -0.200 | -4.5% | -4.3 mg/dL | -11.6% | -0.27 nmol/mL | -9.8% | -17.7 mg/dL | -14.0% | -27.0 mg/dL | -0.3% | -0.1 mg/dL | –

Source: patent US4748161A, “Triterpenyl esters of organic acids and hypolipidemic agents composed of them” (Amano Pharmaceutical Co., Ltd., priority 1984, dated 1988)
